Here are results for ten molecules from patent US20070179143A1 (priority 2003, published 2007).

The subject of data set [1] is A549. The experiment in a line: Cytotoxicity test to cancer cell lines (SRB method), A549. Particulars: Homo sapiens, A549, 48 h, read-out: Cytotoxicity ED50 A549.
Method: (§4) Cytotoxicity to A549 (Korea Research Institute of Chemical Technology), SK-OV-3 (Korea Research Institute of Chemical Technology), SK-MEL-2 (Korea Research Institute of Chemical Technology), HCT-15 (Korea Research Institute of Chemical Technology) and MCF7 (Korean Cell Line Bank, Seoul National University School of medicine) cells was measured by Sulforhodamin-B (SRB) method (1989, National Cancer Institute (NCI)) which was developed for the measurement of in vitro anticancer activity of a drug. Cells were separated using 0.25% trypsin-EDTA solution, leading to the preparation of a cell suspension by 5×10^318 2×10^4 cells/well. Then, the suspension was distributed into a 96 well plate by 100 μl/well, which was cultured in a 37° C., 5% CO2 incubator for 24 hours. Compounds prepared in examples of the present invention were used as a sample. Precisely, the compound was dissolved in dimethylsulfoxide and diluted with RPMI 1640 medium before being used as a sample. The final concentration of the sample used varied ranging 1 μM˜0.00001 μM. The medium was removed from the 96 well plate and then diluted sample solution was added by 100 μl/well, followed by further culture in a 37° C., 5% CO2 incubator for 48 hours. Tz (time zero) plate was collected from the point of adding the sample. Upon completing the culture, the medium was removed from each well along with Tz plate, then 10% trichloroacetic acid (TCA) was added by 100 μl/well. The plate was left at 4° C. for 1 hour to let cells be fixed on the floor of the plate. After cells were fixed completely, the plate was washed with water 5-6 times to remove the remaining trichloroacetic acid solution completely and moisture was completely dried at room temperature. 0.4% Sulforhodamine-B was dissolved in 1% acetic acid solution to prepare a staining solution. Cells were stained for 30 minutes with a dye added by 100 μl to each well of the completely dried plate. Then, the plate was washed with 1% acetic acid solution 5-6 times to remove sulforhodamine-B remained uncombined with cells. Then, the plate was dried at room temperature. 10 mM Tris solution was added by 100 μ/well thereto to dissolve the dye, and optical density (OD) was measured at 520 nm with a micro plate reader.
(§5) ED50 (concentration that inhibits cancer cell growth 50%, 5.0% effective dose, nM/ml) of the sample to cancer cell was calculated as follows. OD value at the point of beginning the culture with the sample was determined as Tz (time zero) value. OD value of a well to be cultured without the sample was determined as a control value (C). OD value of a well pretreated with the sample was determined as experimental value (T). After calculating Tz, C and T, cytotoxicity of the sample was measured by the below <Mathematical Formula 1>. T≦Tz, (T−Tz)/(C−Tz)×100 T>Tz, (T−Tz)/Tz×10,0 <Mathematical Formula 1>
(§6) ED50, the concentration that can inhibit cancer cell growth by 50%, was calculated by using a regression analysis of lotus program based on the degree of cytotoxicity obtained by the <Mathematical Formula 1>.
Data set [2] has as its system HCT-15. The experiment in a line: Cytotoxicity test to cancer cell lines (SRB method), HCT-15. Particulars: Homo sapiens, HCT-15, 48 h, read-out: Cytotoxicity ED50 HCT15.
Method: as §4, §5, §6
Data set [3] concerns SK-MEL-2. The experiment in a line: Cytotoxicity test to cancer cell lines (SRB method), SK-MEL-2. To be noted: Homo sapiens, SK-MEL-2, 48 h, read-out: Cytotoxicity ED50 SK-MEL-2. In kind it is cell-based.
For data set [4], the system named is ICR mice. The experiment in a line: in vivo. Particulars: for Death Total: ICR mice, 7 days, deaths/animals; for Test Day (Death) 2: deaths on day 2; for Test Day (Death) 5: deaths on day 5; for Test Day (Death) 1: deaths on day 1. Here is the method: (§1) 5-week-old ICR mice having the weight of 25-35 g (SPF, SLC Co. Japan) were used as test animals. A pair of female and male of the mice was given for the test of each compound. Group T2, T3, T4 and T5 were arranged (10 animals per group) for the test of acute toxicity of the compound prepared in the Example 12. […] Control group (T1) was administered with only a solvent without the compound of the Example 12.
(§2) For comparison, colchicine was injected in the test animals by the same method as described in the above. The group treated with colchicine was composed of 6 mice.
(§3) Taxol produced by Bristol Myers Sqibb Co. was also used for comparison, and the injection and the test of acute toxicity were performed by the same method as described in the above.

Data set [5] in a line: in vivo. Particulars: ICR, mouse, in vivo. Here is the method:
as §1, §2, §3

Data set [6] has as its system SK-OV-3. The experiment in a line: Cytotoxicity test to cancer cell lines (SRB method), SK-OV-3. The data set is classed as cell-based. Particulars: Homo sapiens, SK-OV-3, 48 h, read-out: Cytotoxicity ED50 SK-OV-3.
Data set [7] can be described thus: Body weight change of NCI-H460 xenografted nude mice. In kind it is in vivo, BALB/c nude mouse.
For data set [8], the system named is MCF7. The experiment in a line: Cytotoxicity test to cancer cell lines (SRB method), MCF7. Particulars: read-out: Cytotoxicity ED50 MCF-7, MCF-7, 48 hours.
Method: as §4, §5, §6
The subject of data set [9] is human lung cancer cell line NCI-H460. Briefly: Inhibiting effect on tumor growth, NCI-H460 xenografted nude mice.
Method: Samples for the experiment were stored in a refrigerator all the time. […] The prepared sample is subject to be precipitated, so that tip sonication was performed right before the administration to disperse it well.
7 week-old female S.P.F. BALB/c nude mice, provided by Charles River Co., Japan, were used as test animals. The test animals were adapted in a Hepa-filter room over a week before the test. The temperature was 21±2° C., humidity was 55±5% and 12-hour light and dark cycle was automatically repeated in that lab. Solid feed (Cheiluedang) was sterilized by radioactive rays and drinking water was also sterilized by autoclave. Feed and water were taken by the animal freely. Cancer cell line used in this experiment was NCI-H460 (human lung tumor cell line) provided by Korea Research Institute of Bioscience and Biotechnology.
The tumor cell line, stored in liquid nitrogen, was thawed and cultured in a 37° C., 5% CO2 incubator for a required time. Upon completing the culture, all the cells were recovered and cell concentration of the culture fluid was adjusted using PBS to 3×10^7 cells/ml. The adjusted cell culture solution was injected hypodermically into armpit between right shoulder girdle and chest wall by 0.3 ml per mouse. From the next day of grafting, NCI-H460 xenografted nude mice were administered intraperitoneal everyday with the sample solution by 0.2 ml/20 g of weight, once a day.
After the grafting of tumor cells, the volume of a tumor in each individual was measured in three dimensions by using a vernier caliper, which was represented in the below <Mathematical Formula 2>. Tumor volume=(length×width×height)/2 <Mathematical Formula 2>
Body weight changes of animal were measured three times a week. Each xenografted nude mouse was sacrificed to separate a tumor, which was then weighed.
[10] abbreviates: 2 mg/kg intraperitoneal once a day.
Setting [11] is: 10 mg/kg intraperitoneal once a day.
[12] abbreviates: 10 mg/kg intraperitoneal once a day, Day 14.
Where [13] appears, read: 2.5 mg/kg intraperitoneal once a day.

Regarding `COc1cc2c(c(OC)c1OC)-c1ccc(OC)c(=O)cc1[C@@H](NC(C)=O)CC2` [Colchicine], the EC50 was 21 nM in data set [1], 9 nM in [2], 6 nM in data set [3] and 18 nM in data set [6]. Moreover, the “Death Total” value in [4] (0.5 mg/kg) is 0/6; in [4] (1.0 mg/kg), 0/6; in data set [4] (2.0 mg/kg) it was 3/6; in data set [4] (5.0 mg/kg), 5/5. Also, the “Test Day (Death) 3” value in data set [4] (2.0 mg/kg, deaths on day 3) is reported as 1. Also, in data set [4] (2.0 mg/kg, deaths on day 6), the “Test Day (Death) 6” value was 2. In addition, in data set [4] (5.0 mg/kg), the “Test Day (Death) 2” value is reported as 3. In addition, the “Test Day (Death) 4” value in [4] (5.0 mg/kg, deaths on day 4) was 1. In addition, the “Test Day (Death) 5” value in [4] (5.0 mg/kg) came to 1. The molecule further showed an LD50 at 7 days in data set [5] (both) of 2 mg/kg.
As for `COc1cccc2c1C(=O)c1c(O)c3c(c(O)c1C2=O)C[C@@](O)(C(=O)CO)C[C@@H]3O[C@H]1C[C@H](N)[C@H](O)[C@H](C)O1` [Doxorubicin, reference compound], in data set [1], the EC50 is 13 nM. Further, in [7] (setting [10]), the “Body weight Change Day 1” value was 100.0 ± 0.0%, the “Body weight Change Day 3” value came out at 105.0 ± 4.1%, the “Body weight Change Day 7” value amounted to 103.9 ± 5.5% and the “Body weight Change Day 9” value turned out to be 100.5 ± 4.6 %. Also, in data set [7] (setting [10]), the “Body weight Change Day 11” value is listed as 96.4 ± 3.5 % and the “Body weight Change Day 14” value came to 85.1 ± 1.8 %. For the same molecule, in data set [2], the EC50 was determined as 25 nM. Further, the EC50 in data set [8] was found to be 50 nM. Besides, in [3], the EC50 was determined as 16 nM. Also, the “Tumor Weight Day 14” value in data set [9] (2 mg/kg intraperitoneal once a day, Day 14) was found to be 534.1 ± 87.9 mg. Also, the EC50 in data set [6] turned out to be 47 nM.
On to `CCOc1cc2c(c(OC)c1OC)-c1ccc(SC)c(=O)cc1[C@@H](NC(=O)c1cccc(CO[N+](=O)[O-])c1F)CC2` [Example 8, N-[(7S)-3-ethoxy-1,2-dimethoxy-10-methylsulfanyl-9-oxo-5,6,7,9-tetrahydro-benzo[a]heptalen-7-yl]-2-fluoro-3-nitrooxymethyl-benzamide], for which, in [1], the EC50 stood at 0.02 nM. Besides, in data set [7] (setting [11]), the “Body weight Change Day 1” value worked out at 100.0 ± 0.0%, the “Body weight Change Day 3” value is 103.5 ± 2.2%, the “Body weight Change Day 7” value amounted to 99.8 ± 4.3 % and the “Body weight Change Day 9” value is 92.3 ± 4.1 %. In data set [7] (setting [11]), the “Body weight Change Day 11” value is 89.3 ± 3.7 % and the “Body weight Change Day 14” value was determined as 89.4 ± 5.3 %. Also, in [7] (comparing to solvent only or positive control), the “decrease of the weight of the mouse” value was “about 10%”. Besides, the EC50 in data set [2] amounted to 0.03 nM. The EC50 in [8] was 0.01 nM. The EC50 in data set [3] was 0.01 nM. Further, the “inhibition rate of the tumor volume” value in [9] (10 mg/kg) amounted to 85%. In data set [9] (10 mg/kg intraperitoneal once a day, Day 0), the “Tumor volume Day 0” value was determined as 0.0 ± 0.0. In addition, the “Tumor volume Day 4” value in data set [9] (10 mg/kg intraperitoneal once a day, Day 4) came out at 18.0 ± 3.7. The “Tumor volume Day 7” value in data set [9] (10 mg/kg intraperitoneal once a day, Day 7) is 25.2 ± 12.8. In addition, the “Tumor volume Day 9” value in [9] (10 mg/kg intraperitoneal once a day, Day 9) stood at 29.6 ± 13.8. For the same molecule, the “Tumor volume Day 11” value in [9] (10 mg/kg intraperitoneal once a day, Day 11) is 35.2 ± 14.0. In data set [9] (setting [12]), the “Tumor Weight Day 14” value amounted to 143.4 ± 57.8 mg and the “Tumor volume Day 14” value worked out at 44.5 ± 15.0. In addition, in data set [9] (comparing to solvent only (V.C-1, V.C-2) or positive control (taxol, adriamycin)), the “size and weight of a tumor (in words)” value was “remarkably decreased”. Also, the EC50 in data set [6] was found to be 0.04 nM.
As to `COc1cc2c(c(OC)c1OC)-c1ccc(SC)c(=O)cc1[C@@H](NC(=O)c1ccccc1SN=O)CC2` [Example 35, 2-nitrosothio-N-[(7S)-1,2,3-trimethoxy-10-methylsulfanyl-9-oxo-5,6,7,9-tetrahydro-benzo[a]heptalen-7-yl]-benzamide], the EC50 in data set [1] is more than 50 nM; in [2], 20.9 nM; in data set [8], 24.7 nM; in [3] it was 41.9 nM; in data set [6], more than 50 nM.
For `COc1cc2c(c(OC)c1OC)-c1ccc(SC)c(=O)cc1[C@@H](NC(=O)c1cc(F)cc(CON=O)c1)CC2` [Example 37, 3-fluoro-5-nitrosooxymethyl-N-[(7S)-1,2,3-trimethoxy-10-methylsulfanyl-9-oxo-5,6,7,9-tetrahydro-benzo[a]heptalen-7-yl]-benzamide], the EC50 in [1] is more than 50 nM; in [2] it was 7.5 nM; in data set [8], 10.3 nM; in [3], 9.4 nM; in data set [6] it was 38.8 nM.
In the same order, the values of `COc1cc2c(c(OC)c1OC)-c1ccc(SC)c(=O)cc1[C@@H](NC(=O)c1cc(F)cc(CSN=O)c1)CC2` [Example 39, 3-fluoro-5-nitrosothiomethyl-N-[(7S)-1,2,3-trimethoxy-10-methylsulfanyl-9-oxo-5,6,7,9-tetrahydro-benzo[a]heptalen-7-yl]-benzamide] are 40.7 nM, 9.9 nM, 5 nM, more than 50 nM and 28.2 nM.
The like results for `COc1cc2c(c(OC)c1OC)-c1ccc(OC)c(=O)cc1[C@@H](NC(=O)c1cc(F)cc(CO[N+](=O)[O-])c1)CC2` [Example 40, 3-fluoro-5-nitrooxymethyl-N-[(7S)-1,2,3,10-tetramethoxy-9-oxo-5,6,7,9-tetrahydro-benzo[a]heptalen-7-yl]-benzamide] were, in that order, 43.9 nM, 24.3 nM, 10.5 nM, 60.7 nM and 45.6 nM.
For `COc1cc2c(c(OC)c1OC)-c1ccc(SC)c(=O)cc1[C@@H](N(C)C(=O)c1cccc(CO[N+](=O)[O-])c1)CC2` [Example 41, 3-nitrooxymethyl-N-methyl-N-[(7S)-1,2,3-trimethoxy-10-methylsulfanyl-9-oxo-5,6,7,9-tetrahydro-benzo[a]heptalen-7-yl]-benzamide], the EC50 in data set [1] is more than 50 nM; in data set [2], 36.4 nM; in data set [8], 47.3 nM; in data set [3] it was more than 50 nM; in data set [6] it was more than 50 nM.
Regarding `COc1cc2c(c(OC)c1OC)-c1ccc(SC)c(=O)cc1[C@@H](N(C)C(=O)c1cc(F)cc(CO[N+](=O)[O-])c1)CC2` [Example 42, 3-fluoro-N-methyl-5-nitrooxymethyl-N-[(7S)-1,2,3-trimethoxy-10-methylsulfany-9-oxo-5,6,7,9-tetrahydro-benzo[a]heptalen-7-yl]-benzamide], the EC50 in data set [1], in [2], in [8], in data set [3] and in [6] was more than 50 nM in each case.
As for `CC(=O)O[C@H]1C(=O)[C@@]2(C)[C@H]([C@H](OC(=O)c3ccccc3)[C@]3(O)C[C@H](OC(=O)[C@H](O)[C@@H](NC(=O)c4ccccc4)c4ccccc4)C(C)=C1C3(C)C)[C@]1(OC(C)=O)CO[C@@H]1C[C@@H]2O` [Paclitaxel, reference compound], the EC50 in data set [1] was 0.3 nM; in [2] it was 0.1 nM; in data set [8], 0.9 nM; in data set [3], 0.1 nM; in data set [6] it was 1.2 nM. Further, the “Body weight Change Day 1” value in data set [7] (setting [13]) is reported as 100.0 ± 0.0%. The “Body weight Change Day 3” value in [7] (setting [13]) stood at 106.0 ± 1.5%. Further, the “Body weight Change Day 7” value in data set [7] (setting [13]) was determined as 99.2 ± 4.0 %. Besides, the “Body weight Change Day 9” value in [7] (setting [13]) was 97.1 ± 0%. Besides, the “Death Total” value in data set [4] (4.0 mg/kg) is 0/5; in data set [4] (6.0 mg/kg), 1/5; in data set [4] (9.0 mg/kg), 2/5; in data set [4] (13.0 mg/kg), 4/5; in [4] (20.0 mg/kg) it was 5/5. In addition, the figures for the “Test Day (Death) 2” value in data set [4] (6.0 mg/kg) and in data set [4] (13.0 mg/kg) were 1 and 2, respectively. Also, the “Test Day (Death) 5” value in data set [4] (9.0 mg/kg) was determined as 2. Moreover, the results for the “Test Day (Death) 1” value in data set [4] (13.0 mg/kg) and in [4] (20.0 mg/kg) were 2 and 5, respectively. In data set [5] (iv), this molecule came in with an LD50 of 9 to 13 mg/kg.
